Measured values reported in ChEMBL document CHEMBL1201862, “PubChem BioAssay data set” (2004).
Active and inactive are the calls of the source.

Tests used:
[1] = target: T1, Caspase-6 (Homo sapiens, UniProt P55212); assay: inhibition of CASP6 peptide cleavage – biochemical, VEID-R110 fluorescence, cherry-pick, dose response (AID 720632)
T1 sequence (P55212 whole entry): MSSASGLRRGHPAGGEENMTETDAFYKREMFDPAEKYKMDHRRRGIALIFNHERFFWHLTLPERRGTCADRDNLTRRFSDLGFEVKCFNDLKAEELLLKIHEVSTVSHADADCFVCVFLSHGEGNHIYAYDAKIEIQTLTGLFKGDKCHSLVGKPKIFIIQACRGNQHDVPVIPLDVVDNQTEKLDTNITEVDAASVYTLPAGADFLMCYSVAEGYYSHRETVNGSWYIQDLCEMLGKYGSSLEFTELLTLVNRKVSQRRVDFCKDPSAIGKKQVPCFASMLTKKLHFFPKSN

[2] = A cytotoxicity screen of small molecule inhibitors of the PhoP region in Salmonella typhi identified in the primary screen. [Related pubchem assays: 1850, 1864, 1985 ]; type: functional
[3] = target: T2, Coagulation factor XII (Homo sapiens, UniProt P00748); type: functional;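 also: activated factor XIIa alpha cleaving a fluorogenic AMC peptide substrate; inhibitor potency from loss of enzyme activity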
T2 sequence (P00748 whole entry): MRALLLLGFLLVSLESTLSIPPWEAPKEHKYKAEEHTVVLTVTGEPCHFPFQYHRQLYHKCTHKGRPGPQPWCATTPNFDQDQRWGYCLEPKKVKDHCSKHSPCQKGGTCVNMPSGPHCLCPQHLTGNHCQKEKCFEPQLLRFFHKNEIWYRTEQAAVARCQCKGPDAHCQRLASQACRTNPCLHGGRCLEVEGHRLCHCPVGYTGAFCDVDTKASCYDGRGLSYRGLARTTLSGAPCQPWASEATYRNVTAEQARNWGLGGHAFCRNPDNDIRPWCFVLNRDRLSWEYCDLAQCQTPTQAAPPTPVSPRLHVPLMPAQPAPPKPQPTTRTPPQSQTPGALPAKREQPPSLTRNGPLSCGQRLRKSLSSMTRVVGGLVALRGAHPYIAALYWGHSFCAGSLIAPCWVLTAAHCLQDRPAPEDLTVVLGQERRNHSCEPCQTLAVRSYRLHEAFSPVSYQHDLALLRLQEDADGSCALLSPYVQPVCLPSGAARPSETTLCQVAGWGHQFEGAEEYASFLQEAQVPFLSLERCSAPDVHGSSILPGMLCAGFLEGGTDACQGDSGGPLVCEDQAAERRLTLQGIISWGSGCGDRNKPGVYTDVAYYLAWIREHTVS

[4] = target: T3, Sentrin-specific protease 7 (Homo sapiens, UniProt Q9BQF6); type: functional;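 also: Luminescence-based dose-response confirmation of ultra-high-throughput screening hits, measuring inhibition of SENP7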
T3 sequence (Q9BQF6 whole entry): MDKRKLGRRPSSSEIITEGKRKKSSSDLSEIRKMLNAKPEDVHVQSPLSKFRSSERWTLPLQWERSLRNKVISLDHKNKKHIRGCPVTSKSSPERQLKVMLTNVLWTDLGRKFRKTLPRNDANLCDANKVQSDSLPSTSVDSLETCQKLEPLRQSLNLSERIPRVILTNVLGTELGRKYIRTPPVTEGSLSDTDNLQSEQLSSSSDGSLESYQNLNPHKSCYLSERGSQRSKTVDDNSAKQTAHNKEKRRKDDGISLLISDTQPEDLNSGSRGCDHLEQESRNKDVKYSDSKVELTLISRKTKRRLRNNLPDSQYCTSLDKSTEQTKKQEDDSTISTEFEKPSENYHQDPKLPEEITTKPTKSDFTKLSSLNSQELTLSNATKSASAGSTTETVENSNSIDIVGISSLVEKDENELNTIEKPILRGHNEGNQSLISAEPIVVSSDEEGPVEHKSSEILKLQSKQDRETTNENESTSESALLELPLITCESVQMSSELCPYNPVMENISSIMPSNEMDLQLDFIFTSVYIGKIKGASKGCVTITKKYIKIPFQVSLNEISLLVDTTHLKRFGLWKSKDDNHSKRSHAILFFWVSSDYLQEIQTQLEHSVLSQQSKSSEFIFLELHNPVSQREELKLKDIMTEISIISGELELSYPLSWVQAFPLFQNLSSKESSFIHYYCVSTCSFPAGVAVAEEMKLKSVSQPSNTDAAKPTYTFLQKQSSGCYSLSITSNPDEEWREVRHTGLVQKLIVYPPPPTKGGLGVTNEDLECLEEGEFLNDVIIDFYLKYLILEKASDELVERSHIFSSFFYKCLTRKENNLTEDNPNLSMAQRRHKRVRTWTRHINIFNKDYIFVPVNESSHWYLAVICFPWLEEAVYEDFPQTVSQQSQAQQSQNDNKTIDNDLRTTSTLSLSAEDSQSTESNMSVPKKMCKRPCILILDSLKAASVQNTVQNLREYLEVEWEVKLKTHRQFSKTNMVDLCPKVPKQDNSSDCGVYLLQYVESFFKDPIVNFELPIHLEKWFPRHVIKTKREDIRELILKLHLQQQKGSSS

[5] = target: T4, Sentrin-specific protease 8 (Homo sapiens, UniProt Q96LD8); type: functional;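 also: luminescence read-out of SENP8 inhibition, dose-response confirmation following an ultra-high-throughput screen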
T4 sequence (Q96LD8 whole entry): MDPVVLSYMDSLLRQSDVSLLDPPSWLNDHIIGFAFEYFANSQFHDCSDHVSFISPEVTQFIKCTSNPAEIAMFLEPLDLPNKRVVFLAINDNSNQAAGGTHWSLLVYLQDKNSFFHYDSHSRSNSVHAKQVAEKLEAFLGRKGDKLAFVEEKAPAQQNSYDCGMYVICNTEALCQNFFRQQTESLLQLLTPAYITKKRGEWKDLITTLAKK

[6] = target: T5, Caspase-3 (Homo sapiens, UniProt P42574); type: functional;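 also: Dose-response selectivity test against caspase-3 for candidate inhibitors of sentrin-specific proteases (SENPs)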
T5 sequence (P42574 whole entry): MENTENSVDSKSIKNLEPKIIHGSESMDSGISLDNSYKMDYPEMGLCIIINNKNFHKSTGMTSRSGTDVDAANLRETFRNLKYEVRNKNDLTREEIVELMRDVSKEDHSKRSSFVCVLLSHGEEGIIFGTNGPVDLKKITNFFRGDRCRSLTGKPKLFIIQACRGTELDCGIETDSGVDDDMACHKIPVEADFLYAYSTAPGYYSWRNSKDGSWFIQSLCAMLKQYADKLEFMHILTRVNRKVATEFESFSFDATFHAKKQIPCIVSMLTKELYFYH

[7] = target: T6, Sentrin-specific protease 6 (Homo sapiens, UniProt Q9GZR1); type: functional;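 also: Luminescence-based dose-response confirmatory assay of SENP6 inhibition, following up an ultra-high-throughput screen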
T6 sequence (Q9GZR1 whole entry): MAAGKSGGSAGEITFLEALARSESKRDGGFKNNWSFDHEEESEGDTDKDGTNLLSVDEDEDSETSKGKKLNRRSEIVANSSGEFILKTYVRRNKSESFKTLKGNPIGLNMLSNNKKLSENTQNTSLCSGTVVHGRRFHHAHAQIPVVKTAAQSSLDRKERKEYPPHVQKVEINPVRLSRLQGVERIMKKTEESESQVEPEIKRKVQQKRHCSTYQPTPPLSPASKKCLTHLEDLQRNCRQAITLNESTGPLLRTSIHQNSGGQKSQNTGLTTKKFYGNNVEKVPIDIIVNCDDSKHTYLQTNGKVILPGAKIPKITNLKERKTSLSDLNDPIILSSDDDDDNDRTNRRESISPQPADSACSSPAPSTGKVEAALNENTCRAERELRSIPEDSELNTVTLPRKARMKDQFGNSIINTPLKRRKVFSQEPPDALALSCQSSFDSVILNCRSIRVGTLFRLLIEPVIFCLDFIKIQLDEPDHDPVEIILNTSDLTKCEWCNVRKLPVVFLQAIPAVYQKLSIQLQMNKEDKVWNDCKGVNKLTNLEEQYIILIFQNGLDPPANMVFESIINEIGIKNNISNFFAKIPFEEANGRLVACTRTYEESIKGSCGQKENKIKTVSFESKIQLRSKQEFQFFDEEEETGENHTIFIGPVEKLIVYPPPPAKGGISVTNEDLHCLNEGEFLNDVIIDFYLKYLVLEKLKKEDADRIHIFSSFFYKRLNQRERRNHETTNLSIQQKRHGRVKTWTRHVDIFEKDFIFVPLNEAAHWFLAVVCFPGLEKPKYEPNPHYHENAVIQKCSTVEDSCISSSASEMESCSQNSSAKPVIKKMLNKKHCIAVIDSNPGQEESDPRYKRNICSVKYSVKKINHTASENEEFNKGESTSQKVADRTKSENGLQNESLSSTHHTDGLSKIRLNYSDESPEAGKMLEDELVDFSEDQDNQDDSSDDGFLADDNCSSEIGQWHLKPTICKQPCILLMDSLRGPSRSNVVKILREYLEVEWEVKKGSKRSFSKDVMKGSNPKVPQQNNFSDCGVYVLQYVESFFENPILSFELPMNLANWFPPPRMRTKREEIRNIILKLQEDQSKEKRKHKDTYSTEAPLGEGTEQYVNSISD

[8] = NIH3T3 cell viability loss – ATP luminescence, mouse fibroblasts, counter-screen, dose response (AID 2010); type: functional, cell-based;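 also: cells exposed to compound for about 90 hours before reading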
[9] = viability of uninfected HEp-2 cells – cell-based, HTS, cytotoxicity control for RSV inhibitor project, dose response (AID 2410); type: functional; conditions: human respiratory syncytial virus
[10] = Trypanosoma cruzi growth suppression in host cells – NIH3T3 host cells, beta-gal luminescence, confirmation (AID 2044); type: functional, cell-based;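 also: intracellular parasites grown in NIH/3T3 mouse fibroblasts as host cells; luminescent beta-galactosidase reporter signal from transgenic T. cruzi replicating inside host cells; inhibitors lower the luminescence signal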
[11] = target: Cytochrome P450 2D6 (Homo sapiens, UniProt P10635);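 also: CYP2D6 member of a cytochrome P450 panel assay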
[12] = viability loss in THP-1 monocytes – THP-1 cells, cytotoxicity control for Vif-APOBEC3G degradation inhibitor project, dose response (AID 1117359); type: functional; conditions: THP-1
[13] = HIV-1 AD8 envelope cell-cell fusion blockers – cherry-pick, dose response (AID 652062); type: functional, cell-based;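 also: luciferase signal from cell-cell fusion driven by HIV-1 clade B AD8 Env; potency is for inhibitors of fusion seen as a drop in luminescence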
[14] = off-target signal loss in HeLa-CEM21 co-culture – HeLa F-luc CTL cells, cherry-picked, counter-screen for HIV-1 Env fusion inhibitor project, dose response (AID 652040); type: functional, cell-based;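 also: potency for signal decrease marking cytotoxic or nonspecific inhibition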
[15] = blockers of HIV-1 ZM109 envelope-driven cell-cell fusion – HeLa effector, CEM target cells, luciferase, cherry-pick, dose response (AID 652058); type: functional, cell-based;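 also: luciferase signal from HIV-1 Env mediated cell-cell fusion of effector and target cells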
[16] = blockers of HIV-1 envelope-mediated cell-cell fusion – cherry-pick, dose response (AID 652057); type: functional, cell-based
[17] = OVCAR-3 cell viability loss – plate reader, dry powder samples, PAX8 inhibitor project, dose response (AID 743044); type: functional, cell-based
[18] = OVCAR8 cell viability loss – plate reader, dry powder samples, PAX8 project, dose response (AID 743197); type: functional, cell-based; conditions: OVCAR-8
[19] = target: Paired box protein Pax-8 (Homo sapiens, UniProt Q06710); assay: PAX8 transcriptional activity inhibition in RMG-I – RMG-I cells, luciferase, cherry-pick, dose response (AID 687027); type: functional, cell-based;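 also: luciferase reporter driven by Pax8 target thyroperoxidase promoter measured by SteadyGlo luminescence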
[20] = general cell-killing toxicity readout – plate reader, dry powder samples, cytotoxicity control for PAX8 inhibitor project, dose response (AID 743021); type: functional, cell-based

Sequence of Paired box protein Pax-8 (Q06710 whole entry): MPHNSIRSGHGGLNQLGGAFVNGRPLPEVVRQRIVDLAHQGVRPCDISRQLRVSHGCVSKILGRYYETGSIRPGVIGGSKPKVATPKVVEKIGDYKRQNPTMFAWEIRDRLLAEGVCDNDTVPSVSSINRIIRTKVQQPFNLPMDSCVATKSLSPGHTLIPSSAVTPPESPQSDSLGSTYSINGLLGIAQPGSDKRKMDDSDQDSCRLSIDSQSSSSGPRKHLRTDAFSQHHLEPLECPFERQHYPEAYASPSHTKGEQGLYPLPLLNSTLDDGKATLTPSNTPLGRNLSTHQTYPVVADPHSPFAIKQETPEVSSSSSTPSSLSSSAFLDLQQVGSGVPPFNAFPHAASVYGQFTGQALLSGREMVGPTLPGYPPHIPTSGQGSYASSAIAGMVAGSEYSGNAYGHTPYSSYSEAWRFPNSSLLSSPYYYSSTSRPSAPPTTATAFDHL
Sequence of Cytochrome P450 2D6 (P10635 whole entry): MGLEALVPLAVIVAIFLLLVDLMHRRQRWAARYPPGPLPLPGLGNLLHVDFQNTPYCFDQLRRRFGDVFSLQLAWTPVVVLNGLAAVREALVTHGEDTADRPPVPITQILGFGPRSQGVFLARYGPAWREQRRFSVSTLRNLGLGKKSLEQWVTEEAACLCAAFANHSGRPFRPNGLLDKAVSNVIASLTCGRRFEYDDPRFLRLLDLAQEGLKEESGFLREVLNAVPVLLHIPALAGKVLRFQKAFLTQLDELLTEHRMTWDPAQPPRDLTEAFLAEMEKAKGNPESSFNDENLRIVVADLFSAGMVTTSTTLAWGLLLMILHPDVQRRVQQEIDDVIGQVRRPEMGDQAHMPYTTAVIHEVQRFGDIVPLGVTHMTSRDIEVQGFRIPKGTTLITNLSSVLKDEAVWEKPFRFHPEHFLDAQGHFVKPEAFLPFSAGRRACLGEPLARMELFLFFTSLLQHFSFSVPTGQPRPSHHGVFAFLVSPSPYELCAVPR

In the case of `O=C(O)c1c2c(nc3ccc(Cl)cc13)CCC2`, the AC50 [1] was 28.8 µM (active).
With `COCC1CCCN(Cc2c[nH]nc2-c2cc3ccccc3o2)C1` (stereo not drawn) the EC50 [2] was > 50 µM (active).
For `COc1ccc(-c2cc(-c3nnc(COC(=O)CC4CC5CCC4C5)o3)c3ccccc3n2)cc1OC` (stereo not drawn), the IC50 [3] was > 50 µM (inactive).
With `COC(=O)c1ccccc1NC(=O)Nc1cc(C)ccn1` the IC50 [3] was > 50 µM (inactive).
For `CCn1nnnc1SCC(=O)c1cc(Cl)ccc1OC`, the EC50 [2] was > 50 µM (active).
In the case of `Cc1ccnc(Nc2nc(-c3ccccc3)cs2)c1`, the IC50 [4] was 1.78 µM (active), the IC50 [5] was 3.93 µM (active) and the IC50 [6] was 13.1 µM (active). For the same molecule, the IC50 [7] was 7.16 µM (active).
In the case of `O=C(Nc1ccc2[nH]c(-c3ccc(Br)o3)nc2c1)c1cccs1`, the EC50 [8] was > 60 µM (not active), the CC50 [9] was 24 µM (active) and the EC50 [2] was > 50 µM (active). For the same molecule, the EC50 [10] was 3.18 µM (active).
With `Cc1ccc(S(=O)(=O)N(CC(=O)NCCC2=CCCCC2)Cc2ccccc2F)cc1` the AC50 [11] was 20 µM (inconclusive) and the CC50 [12] was > 40 µM (active).
With `Cc1c(C=O)c2ccccn2c1C(=O)c1ccccc1` the EC50 [2] was > 50 µM (active).
For `CCC(=O)OCCn1c(=O)c2cc3c(=O)n(CCOC(=O)CC)c(=O)c3cc2c1=O`, the IC50 [3] was > 50 µM (inactive).
For `O=c1c(-c2cc(O)[nH]n2)c(O)c2ccccc2n1Cc1ccccc1`, the AC50 [1] was 19.7 µM (active).
In the case of `CSCCC(NS(=O)(=O)c1ccc2c(c1)oc(=O)n2C)C(=O)NC1CCCc2ccccc21` (stereo not drawn), the AC50 [13] was 8.37 µM (active), the AC50 [14] was 7.6 µM (active) and the AC50 [15] was 3.16 µM (active). For the same molecule, the AC50 [16] was 4.21 µM (active).
In the case of `O=C(OCC(=O)N1CCCc2ccccc21)c1ccc(Cl)nc1`, the IC50 [3] was > 50 µM (inactive).
For `O=C1Cc2ccccc2C(=O)N1Nc1ccccc1`, the AC50 [1] was 51.5 µM (active).
With `O=C(C[C@@H]1C[C@@H]2c3cc(NS(=O)(=O)c4ccc(F)cc4)ccc3O[C@@H]2[C@@H](CO)O1)NCc1ccc(Oc2ccccc2)cc1` the AC50 [17] was 22.1 µM (active), the AC50 [18] was 17.9 µM (active) and the AC50 [19] was 6.15 µM (active). For the same molecule, the AC50 [20] was 27.8 µM (active).
For `CCc1ccc([C@H]2[C@@H]3C(=O)C[C@@H]4C(=O)N(C5CCCCC5)C(=O)[C@@H]4[C@@H]3CN2S(=O)(=O)c2ccc(C)cc2)cc1`, the AC50 [13] was 2.15 µM (active), the AC50 [14] was 2.53 µM (active) and the AC50 [15] was 1.99 µM (active). The AC50 [16] was 1.09 µM (active).
For `Cc1ccc(NC(=O)/C(CN(C)C)=N\O)cc1`, the IC50 [3] was > 50 µM (inactive).
